Assay results as given in ChEMBL document CHEMBL3853312, “Blocking Blood Flow to Solid Tumors by Destabilizing Tubulin: An Approach to Targeting Tumor Growth” (J Med Chem, 2016).
One block for each compound: values may come before it.

Tests used:
Assay type in all cases: ADME, organism-based
[1] = Drug excretion in iv dosed human urine assessed as unchanged compound administered as 30 mins infusion after 24 hrs by LC-MS/MS analysis; conditions: read-out: Drug excretion
[2] = Tmax in human at 250 mg, po qd regimen measured on day 7 post dose by LC-MS analysis; conditions: in vivo
[3] = Apparent half life in human at 11.5 to 42 mg/m'-2, iv dosed as 30 mins infusion by LC-MS/MS analysis; conditions: in vivo, read-out: t1/2(app)

dose excreted at 24 h [1]: < 1%
SMILES: COc1cc(C(=O)c2ccc(-c3csc(NC(=O)[C@@H](N)C(C)C)n3)cc2-n2cncn2)cc(OC)c1OC

Tmax [2]: 120 min
SMILES: COc1ccc(S(=O)(=O)Nc2cccnc2Nc2ccc(O)cc2)cc1 [ABT-751]

SMILES: COc1ccc(/C=C\c2cc(OC)c(OC)c(OC)c2)cc1NC(=O)[C@@H](N)CO [OMBRABULIN]
half-life [3]: 12 min
